# Patent US8378104B2 (OSI Pharmaceuticals, LLC, priority 2010, dated 2013)
# Where a name gives a salt, the structure may show the parent alone.
# Molecular target: T1, TAK1-TAB1 fusion protein (Homo sapiens, UniProt O43318)
# T1 construct: purchased Carna
# T1 sequence (O43318 with tags, fused parts or gaps limits assumed): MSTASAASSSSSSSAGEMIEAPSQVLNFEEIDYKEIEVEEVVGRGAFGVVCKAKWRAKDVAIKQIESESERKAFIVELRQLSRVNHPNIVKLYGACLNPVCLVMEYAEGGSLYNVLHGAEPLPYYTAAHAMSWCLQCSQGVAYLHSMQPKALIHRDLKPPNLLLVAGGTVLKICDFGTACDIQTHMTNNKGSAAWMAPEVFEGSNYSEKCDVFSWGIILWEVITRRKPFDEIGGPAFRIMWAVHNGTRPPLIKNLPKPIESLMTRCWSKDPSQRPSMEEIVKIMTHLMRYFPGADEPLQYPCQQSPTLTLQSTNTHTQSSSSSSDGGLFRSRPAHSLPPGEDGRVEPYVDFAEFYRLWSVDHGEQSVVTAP
# Experiment: TAK1 biochemical assay (AlphaScreen, GST-MAP2K7 substrate)
# Conditions: not given
row,IC50,SMILES
1,> 10 µM,"Cc1nn(C)c(C)c1-c1cnc(N)c2oc(-c3csc4cnccc34)cc12 [Example 294, 2-thieno[2,3-c]pyridin-3-yl-4-(1,3,5-trimethyl-1H-pyrazol-4-yl)-furo[2,3-c]pyridin-7-ylamine]"

# Same assay, conditions: TAK1-TAB1 fusion protein, GST-MAP2K7 substrate; read-out: mean TAK1 IC50 (Col. A)
row,IC50,SMILES
1,1 to 10 µM,"Nc1ncc(-c2cnn(C3CCN(C(=O)Nc4cccc(Cc5ccccc5)c4)CC3)c2)c2cc(-c3cccc4cnsc34)oc12 [Example 339, 4-[4-(7-amino-2-benzo[d]isothiazol-7-yl-furo[2,3-c]pyridin-4-yl)-pyrazol-1-yl]-piperidine-1-carboxylic acid (3-benzyl-phenyl)-amide]"
2,> 10 µM,"CC(=O)N1CCC(n2cc(-c3cnc(N)c4oc(-c5cccc(OCC(C)C)c5)cc34)cn2)CC1 [Example 204, 1-[4-(4-{7-amino-2-[3-(2-methylpropoxy)phenyl]furo[2,3-c]pyridin-4-yl}-1H-pyrazol-1-yl)piperidin-1-yl]ethanone]"
3,> 10 µM,"Nc1ncc(-c2cnn([C@H]3CC[C@H](O)CC3)c2)c2cc(-c3c(-c4cccc(F)c4)ccc4cnsc34)oc12 [Example 356, trans-4-(4-{7-amino-2-[6-(3-fluorophenyl)-1,2-benzothiazol-7-yl]furo[2,3-c]pyridin-4-yl}-1H-pyrazol-1-yl)cyclohexanol]"
4,> 10 µM,"Nc1ncc(-c2cnn([C@H]3CC[C@H](O)CC3)c2)c2cc(-c3cc(C(F)(F)F)cc(C(F)(F)F)c3)oc12 [Example 401, trans-4-(4-{7-amino-2-[3,5-bis(trifluoromethyl)phenyl]furo[2,3-d]pyridin-4-yl}-1H-pyrazol-1-yl)cyclohexanol]"
5,1 to 10 µM,"CC(=O)Nc1ccc(-c2cc3c(-c4cnn(C5CCN(C(C)=O)CC5)c4)cnc(N)c3o2)cn1 [Example 126, N-(5-{4-[1-(1-acetylpiperidin-4-yl)-1H-pyrazol-4-yl]-7-aminofuro[2,3-c]pyridin-2-yl}pyridin-2-yl)acetamide]"
6,1 to 10 µM,"Nc1ncc(-c2cnn(C3CCN(C(=O)CCC4CCCC4)CC3)c2)c2cc(-c3csc4cnccc34)oc12 [Example 335, 1-{4-[4-(7-Amino-2-thieno[2,3-c]pyridin-3-yl-furo[2,3-c]pyridin-4-yl)-pyrazol-1-yl]-piperidin-1-yl}-3-cyclopentyl-propan-1-one]"
7,0.1 to 1 µM,"CC(=O)N1CCC(n2cc(-c3cnc(N)c4oc(-c5ccnc6ccccc56)cc34)cn2)CC1 [Example 175, 1-(4-{4-[7-amino-2-(quinolin-4-yl)furo[2,3-c]pyridin-4-yl]-1H-pyrazol-1-yl}piperidin-1-yl)ethanone]"
8,1 to 10 µM,"Cc1csc(-c2cnc(N)c3oc(-c4csc5cnccc45)cc23)c1 [Example 375, 4-(4-methyl-thiophen-2-yl)-2-thieno[2,3-c]pyridin-3-yl-furo[2,3-c]pyridin-7-ylamine]"
9,1 to 10 µM,"Cc1nc(-c2cnc(N)c3oc(-c4csc5cnccc45)cc23)cs1 [Example 390, 4-(2-methyl-1,3-thiazol-4-yl)-2-(thieno[2,3-c]pyridin-3-yl)furo[2,3-c]pyridin-7-amine trifluoroacetate]"
10,> 10 µM,"COc1cccc(COc2cccc(-c3cc4c(-c5cnn(C6CCN(C(C)=O)CC6)c5)cnc(N)c4o3)c2)c1 [Example 207, 1-{4-[4-(7-amino-2-{3-[(3-methoxybenzyl)oxy]phenyl}furo[2,3-c]pyridin-4-yl)-1H-pyrazol-1-yl]piperidin-1-yl}ethanone]"
11,1 to 10 µM,"Cc1c(-c2cnc(N)c3oc(-c4csc5cnccc45)cc23)cnn1[C@@H]1C[C@@H](O)[C@@H](O)C1 [Example 312, rel-(1R,2S,4S)-4-[4-(7-amino-2-thieno[2,3-c]pyridin-3-yl-furo[2,3-c]pyridin-4-yl)-5-methyl-pyrazol-1-yl]-cyclopentane-1,2-diol]"
12,1 to 10 µM,"Nc1ncc(-c2cnn(C3CCNCC3)c2)c2cc(-c3csc4ccccc34)oc12 [Example 19, 2-(1-benzothiophen-3-yl)-4-[1-(piperidin-4-yl)-1H-pyrazol-4-yl]furo[2,3-c]pyridine-7-amine]"
13,1 to 10 µM,"Nc1ncc(-c2cnn(C3CCNCC3)c2)c2cc(-c3cccc(Cl)c3Cl)oc12 [Example 4, 2-(2,3-dichlorophenyl)-4-[1-(piperidin-4-yl)-1H-pyrazol-4-yl]furo[2,3-c]pyridin-7-amine]"
14,0.1 to 1 µM,"CCOc1cc2c(-c3cc4c(-c5cnn(C6CCN(C(C)=O)CC6)c5)cnc(N)c4o3)csc2cn1 [Example 245, 1-(4-{4-[7-amino-2-(5-ethoxythieno[2,3-c]pyridin-3-yl)furo[2,3-c]pyridin-4-yl]-1H-pyrazol-1-yl}piperidin-1-yl)ethanone bis(trifluoroacetate)]"
15,> 10 µM,"CC(=O)N1CCC(n2cc(-c3cnc(N)c4oc(-c5cccc(OCc6cccc(Cl)c6)c5)cc34)cn2)CC1 [Example 201, 1-{4-[4-(7-amino-2-{3-[(3-chlorobenzyl)oxy]phenyl}furo[2,3-c]pyridin-4-yl)-1H-pyrazol-1-yl]piperidin-1-yl}ethanone]"
16,1 to 10 µM,"Cc1nn(C[C@H](O)CO)cc1-c1cnc(N)c2oc(-c3csc4cnccc34)cc12 [Example 318, (S)-3-[4-(7-amino-2-thieno[2,3-d]pyridin-3-yl-furo[2,3-d]pyridin-4-yl)-3-methyl-pyrazol-1-yl]-propane-1,2-diol]"
17,1 to 10 µM,"CC(=O)N1CCC(n2cc(-c3cnc(N)c4oc(-c5csc6cc(=O)n(C)cc56)cc34)cn2)CC1 [Example 258, 3-{4-[1-(1-acetylpiperidin-4-yl)-1H-pyrazol-4-yl]-7-aminofuro[2,3-c]pyridin-2-yl}-5-methylthieno[3,2-c]pyridin-6(5H)-one trifluoroacetic Acid Salt]"
18,> 10 µM,"Cn1cc2c(-c3cc4c(-c5cnn([C@H]6CC[C@H](O)CC6)c5)cnc(N)c4o3)csc2cc1=O [Example 259, 3-{7-amino-4-[1-(trans-4-hydroxycyclohexyl)-1H-pyrazol-4-yl]furo[2,3-c]pyridin-2-yl}-5-methylthieno[3,2-c]pyridin-6(5H)-one]"
19,1 to 10 µM,"Nc1ncc(-c2cnn(C3CCN(C(=O)CCC4CCCCC4)CC3)c2)c2cc(-c3csc4cnccc34)oc12 [Example 334, 1-{4-[4-(7-amino-2-thieno[2,3-c]pyridin-3-yl-furo[2,3-c]pyridin-4-yl)-pyrazol-1-yl]-piperidin-1-yl}-3-cyclohexyl-propan-1-one]"
20,1 to 10 µM,"Nc1ncc(-c2cnn(C3CCNCC3)c2)c2cc(-c3cccc4nn[nH]c34)oc12 [Example 46, 2-(1H-benzotriazol-7-yl)-4-[1-(piperidin-4-yl)-1H-pyrazol-4-yl]furo[2,3-c]pyridine-7-amine]"
21,1 to 10 µM,"Nc1ncc(-c2cnn([C@H]3CC[C@H](O)CC3)c2)c2cc(-c3c(-c4ccccc4)sc4cnccc34)oc12 [Example 269, trans-4-{4-[7-amino-2-(2-phenylthieno[2,3-c]pyridin-3-yl)furo[2,3-c]pyridin-4-yl]-1H-pyrazol-1-yl}cyclohexanol trifluoroacetate]"
22,1 to 10 µM,"CC(=O)N1CCC(n2cc(-c3cnc(N)c4oc(-c5cccc(OCc6ccccn6)c5)cc34)cn2)CC1 [Example 199, 1-[4-(4-{7-amino-2-[3-(Pyridin-2-ylmethoxy)phenyl]furo[2,3-c]pyridin-4-yl}-1H-pyrazol-1-yl)piperidin-1-yl]ethanone]"
